Assay results taken from article PMC11649784, “Re-design and evaluation of diclofenac-based carborane-substituted prodrugs and their anti-cancer potential” (Scientific Reports, 2024).

Columns and labels:
[1] = system: human fetal lung fibroblast cell line MRC-5; assay: Viability of non-malignant MRC-5 cells; assay type: cell-based; settings: column head not given
Method: (§1) The biological study was performed on a murine colon adenocarcinoma cell line (MC38), two human colorectal carcinoma cell lines (HCT116 and HT29), and a human fetal lung fibroblast cell line (MRC-5). All cell lines are commercially available and were obtained from the American Type Culture Collection (ATCC). The human cell lines were kept in HEPES-buffered RPMI-1640 medium supplemented with 10 [drawing 141] heat-inactivated FCS, 2 mM L-glutamine, 0.01 [drawing 142] sodium pyruvate, penicillin (100 units mL^−1), and, streptomycin ( [drawing 143] mL^-1). The MC38 cell line was maintained in DMEM medium additionally supplemented with 1 [drawing 144] non-essential amino acids. Cells were grown at [drawing 145] in a humidified atmosphere with 5 [drawing 146] [drawing 147] . Peritoneal exudate cells (PECs) were isolated from healthy C57BL/6 mice (males, n = 3, 3 months old, weight 22–25 g) by performing an ice-cold PBS peritoneal lavage. Mice were sacrificed by cervical dislocation. Cells were cultivated for 4 h when nonadherent population was removed by washing in PBS, and additionally cultivated overnight in HEPES-buffered RPMI-1640 medium supplemented with 5 [drawing 148] heat-inactivated FCS before treatment with experimental drugs. […]
(§2) After 72 h, cell viability was determined using MTT and CV tests. […] For both viability tests, the absorbance of the developed colors was measured using an automated microplate reader at 570 nm with a reference wavelength of 670 nm. The results were expressed as a percentage of the control values of the untreated cells, which were arbitrarily set at 100 [drawing 160] . IC50 values, defined as 50 [drawing 161] inhibitory concentration, were calculated using a four-parameter logistic function and presented as mean±SD. […] To evaluate the nature of the detected autophagy, a combined treatment with compound 3 and the autophagy inhibitors chloroquine (Chlq) and 3-methyladenine (3-MA) was carried out. […] After 72 h, cell viability was determined by CV assay.

HCT116 cells = assay: MTT viability assay, HCT116; assay type: cell-based, human; settings: 72 h, mean±SD; read-out: IC50 [μM] (n = 3) HCT116 MTT
Method: (§3) In a preliminary test, the stability of all compounds dissolved in the cell medium (c = 100 μM, T = [drawing 47] ) for 72 h was validated by HPLC (see Supporting Information). Cell lines were incubated with the respective compounds in a concentration range of 1.56–100 μM for 72 h, and cell viability was measured using 3-(4,5-dimethylthiazol-2-yl)-2,5-diphenyltetrazolium bromide (MTT) and crystal violet (CV) assays. […] As MTT tests gave inconsistent results, possibly due to interference of the compound with mitochondrial respiration, for the further evaluation only the CV results are considered[97],[98].
The biological study was performed on a murine colon adenocarcinoma cell line (MC38), two human colorectal carcinoma cell lines (HCT116 and HT29), and a human fetal lung fibroblast cell line (MRC-5). All cell lines are commercially available and were obtained from the American Type Culture Collection (ATCC). The human cell lines were kept in HEPES-buffered RPMI-1640 medium supplemented with 10 [drawing 141] heat-inactivated FCS, 2 mM L-glutamine, 0.01 [drawing 142] sodium pyruvate, penicillin (100 units mL^−1), and, streptomycin ( [drawing 143] mL^-1). The MC38 cell line was maintained in DMEM medium additionally supplemented with 1 [drawing 144] non-essential amino acids. Cells were grown at [drawing 145] in a humidified atmosphere with 5 [drawing 146] [drawing 147] . Peritoneal exudate cells (PECs) were isolated from healthy C57BL/6 mice (males, n = 3, 3 months old, weight 22–25 g) by performing an ice-cold PBS peritoneal lavage. Mice were sacrificed by cervical dislocation. Cells were cultivated for 4 h when nonadherent population was removed by washing in PBS, and additionally cultivated overnight in HEPES-buffered RPMI-1640 medium supplemented with 5 [drawing 148] heat-inactivated FCS before treatment with experimental drugs. Animal handling and protocol for isolation of PECs were performed according to European Union rules, and the ARRIVE guidelines 2.0.
For the viability tests, MC38, HCT116, and HT29 cells were seeded in 96-well plates at a density of 2 [drawing 149] 103, 5 [drawing 150] 103, and 6 [drawing 151] 10^3 cells/well, respectively. To determine whether the drug affected the viability of healthy, non-malignant cells, MRC-5 and PECs were seeded in 96-well plates at a density of 8 [drawing 152] 103 and 2 [drawing 153] 10^5 cells/well, respectively. For the flow cytometric analyses, MC38 cells were seeded in 6-well plates at 5 [drawing 154] 10^4 cells/well. For morphological assessment of nuclei and the detection of autophagy, MC38 cells were seeded in 2-well chamber slides at 1.5 [drawing 155] 10^4 cells/well.
After 72 h, cell viability was determined using MTT and CV tests. First, the supernatant from the wells was discarded and the cells were incubated with an MTT solution (0.5 mg mL^−1). After half an hour, the purple formazan crystals formed were dissolved in DMSO. For CV staining of the cells, the cells were fixed with 4 [drawing 157] PFA for 10 min and then stained with a 0.02 [drawing 158] CV solution for 15 min, all at room temperature (RT). The cells were then washed with tap water, air-dried and the dye was dissolved in 33 [drawing 159] acetic acid. For both viability tests, the absorbance of the developed colors was measured using an automated microplate reader at 570 nm with a reference wavelength of 670 nm. The results were expressed as a percentage of the control values of the untreated cells, which were arbitrarily set at 100 [drawing 160] . IC50 values, defined as 50 [drawing 161] inhibitory concentration, were calculated using a four-parameter logistic function and presented as mean±SD. All biological experiments were performed in triplicates. To evaluate the nature of the detected autophagy, a combined treatment with compound 3 and the autophagy inhibitors chloroquine (Chlq) and 3-methyladenine (3-MA) was carried out. […] After 72 h, cell viability was determined by CV assay.

[2] = Stability in solution, air and moisture; settings: storage
[3] = Stability in cell culture medium by HPLC; assay type: physicochemical
Method: as §3
Selg et al. Supp. Information
2 Stability Tests for Compound 3
In a 1 mL Eppendorf vial, 10 μL (0.05 μmol) of a freshly prepared 5 mM stock solution of compound 3 in DMSO was mixed with 490 μL of DMEM (Dulbecco's Modified Eagle Medium) containing 10% of fetal bovine serum and stored in an incubation oven at 40 °C for a total 72 hours. After 0, 24 and 72 hours, a 50 μL sample was collected from the mixture and diluted with 250 μL acetonitrile in a 500 μL Eppendorf vial to precipitate the proteins. The mixture was vortexed for 30 s before it was centrifuged for 20 min at 15,000 min-1 and 4 °C. […]
Figure S 2. […] Samples measured at 0, 24 and 72 hours (top to bottom) including the mass spectrum (right) and integration data (bottom). […]

[4] = system: peritoneal exudate cells (PECs); assay: Viability of peritoneal exudate cells; assay type: cell-based, mice; settings: column head not given
Method: as §1, §2

MC38 cells = assay: AnnV-FITC/PI double staining, flow cytometry; assay type: cell-based, murine; settings: IC50 concentration, 72 h
Method: For all flow cytometric analyses, MC38 cells were seeded overnight and then treated with the IC50 concentration of compound 3 for 72 h. The cells were harvested, washed, and stained according to the manufacturer’s instructions for each method. To determine whether the compound induces apoptosis, cells were double stained with AnnV-FITC and PI (15 μg mL^–1) for 15 min at RT in the dark. To detect caspase activity, cells were stained with the FITC-conjugated caspase inhibitor ApoStat for 30 min at [drawing 162] . To detect cell proliferation, MC38 cells were stained with CFSE (1 μM) for 10 min at [drawing 163] prior to seeding and then treated as previously described. To detect intracellular production of Reactive oxygen/nitrogen Species (ROS/RNS), MC38 cells were prestained with DHR 123 (1 [drawing 164] M) for 20 min at [drawing 165] , then seeded and exposed to an IC50 concentration of compound 3. After 72 h incubation, all samples were washed, resuspended in PBS and fluorescence intensity was analyzed using a CytoFLEX [drawing 166] flow cytometer (Beckman Coulter, Pasadena, CA, USA), while the data obtained was evaluated using the [drawing 167] software program.

IC50 (HCT116 cells): 6.9 ± 1.5 µM
stability in air and moisture [2]: stable in air and moisture
stability in cell medium by HPLC ([3]; 100 μM, 72 h, compound 3: DMEM with 10% fetal bovine serum, 40 °C, 0, 24 and 72 hours): no signs of decomposition
purity (relative area of integrals) after 72 hours in culture medium ([3]; DMEM with 10% fetal bovine serum, 40 °C, 72 hours): above 95%
Substance: 1-[2-(7,8-dicarba-nido-undecaborate)]- [drawing 126] H-indolium-2-amine [compound 3]
Selectivity index (IC50 value of primary vs. cancer cells), MRC-5, second cancer cell line column ([1]; presumably HCT116): 1.5
Selectivity index (IC50 value of primary vs. cancer cells), MRC-5, third cancer cell line column ([1]; presumably HT29): 0.98
Selectivity index (IC50 value of primary vs. cancer cells), MRC-5, first cancer cell line column ([1]; presumably MC38): 1.81
Selectivity index (IC50 value of primary vs. cancer cells), PEC, second cancer cell line column ([4]; presumably HCT116): 2.17
Selectivity index (IC50 value of primary vs. cancer cells), PEC, third cancer cell line column ([4]; presumably HT29): 1.42
Selectivity index (IC50 value of primary vs. cancer cells), PEC, first cancer cell line column ([4]; presumably MC38): 2.63
apoptosis (AnnV-FITC/PI), in words (MC38 cells): moderate apoptotic cell accumulation
